Patent US20090118253A1, “COMPOSITIONS AND METHODS FOR TREATING DYSFUNCTIONAL UTERINE BLEEDING” (REPROS THERAPEUTICS INC., priority 2007, published 2009)

Columns and labels:
[1] = Serum corticosterone in rats; settings: CDB-4124 10 or 20 mg/kg, RU 486 10 mg/kg, progesterone 10 mg/kg
human endometrium = experiment: Six month endometriosis study: ultrasound measurements of endometrial thickness; type: in vivo; settings: for Endometrium (mm), 1st dose: 1st dose visit; for Endometrium (mm), screening: screening (baseline)
Description: Women in the study were closely monitored for changes in the structure of the endometrium. […] Comparisons were made to both baseline and visit one ultrasound measurements of endometrial thickness. […]

[2] = system: pre-menopausal adult women diagnosed with endometriosis; experiment: Six month endometriosis study: pain diaries and pain intensity surveys; type: in vivo, human; settings: for pain free days, percent: 180 day treatment period
Method: Pain reduction also occurred more rapidly than with the active control, Lucrin®. The response of pain to treatment in this study was analyzed in two ways. Patients in the study maintained daily pain diaries to record the severity and frequency of pain. In addition, at each office visit, patients filled out endometriosis symptom surveys that included a questionnaire that evaluated intensity of pain on a bad day on a scale of 0-10 with 10 being the greatest intensity. […] This decrease in duration of pain was statistically better (p=0.0012) than the 117.8 (74%; standard deviation 51.4 days) pain free days achieved with Lucrin n. […] Patients on CDB-4124 12.5 mg and 25 mg doses had 115.9 (66%; standard deviation 69.2 days) and 133.6 (75%; standard deviation 27.4 days) pain free days, respectively. […] The 25 mg and 12.5 mg doses of CDB-4124 were not statistically different from Lucrin®. […] The intensity of pain was asked by the question: “On a scale of 1-10, with 0 being no pain and 10 being extreme pain, how intense was your pain on a bad day?” The mean scores for intensity of pain at baseline were 6.3 for the CDB-4124 groups and 6.1 for the Lucrin® group. […] At month three all four active treatment groups had satistically significant reduction in pain compared with baseline, with the following scores: 3.7 (p=0.03) for 12.5 mg CDB-4124, 3.2 (p=0.03) for 25 mg CDB-4124, 1.6 (p=0.015) for 50 mg CDB-4124 and 1.5 (p=0.016) for Lucrin®. These dose related reductions continued until month six when the values for pain intensity were 2.0 (p=0.008), 2.8 (p=0.023), 0.6 (p=0.004) and 0.7 (p=0.016), respectively. Two months after stopping treatment pain returned and was of similar intensity in all four treatment groups.

COCC(=O)[C@@]1(OC(C)=O)CC[C@H]2[C@@H]3CCC4=CC(=O)CCC4=C3[C@@H](c3ccc(N(C)C)cc3)C[C@@]21C [CDB-4124, 21-methoxy-17α-acetoxy-11β-(4 N,N-dimethylaminophenyl)-19-norpregna-4,9-diene-3,20-dione]
differences in serum corticosterone between groups [1]: No differences | women exhibiting thickened endometrium after three months (human endometrium; 12.5 mg dose (n=4)): two | Endometrium (mm), 1st dose (human endometrium; 12.5 mg): 8.0 mm | Endometrium (mm), 3 months (human endometrium; 12.5 mg): 20.33 mm | Endometrium (mm), screening (human endometrium; 12.5 mg): 7.5 mm | women exhibiting thickened endometrium after three months (human endometrium; 25 mg dose (n=4)): One | Endometrium (mm), 1st dose (human endometrium; 25 mg): 11.7 mm | Endometrium (mm), 3 months (human endometrium; 25 mg): 19.6 mm | Endometrium (mm), screening (human endometrium; 25 mg): 8.4 mm | women exhibiting thickened endometrium after three months (human endometrium; 50 mg dose (n=3)): none | Endometrium (mm), 1st dose (human endometrium; 50 mg): 10.8 mm | Endometrium (mm), 3 months (human endometrium; 50 mg): 7.7 mm | Endometrium (mm), screening (human endometrium; 50 mg): 8.0 mm | mean score for intensity of pain on a bad day (scale 0-10) ([2]; baseline): 6.3 | score for intensity of pain on a bad day (scale 0-10) ([2]; month six, 12.5 mg/day): 2.0 | score for intensity of pain on a bad day (scale 0-10) ([2]; month six, 25 mg/day): 2.8 | score for intensity of pain on a bad day (scale 0-10) ([2]; month six, 50 mg/day): 0.6 | score for intensity of pain on a bad day (scale 0-10) ([2]; month three, 12.5 mg/day): 3.7 | score for intensity of pain on a bad day (scale 0-10) ([2]; month three, 25 mg/day): 3.2 | score for intensity of pain on a bad day (scale 0-10) ([2]; month three, 50 mg/day): 1.6 | pain free days over the 180 day treatment period ([2]; women, 12.5 mg/day oral): 115.9 days | pain free days, percent ([2]; women, 12.5 mg/day oral): 66% | pain free days over the 180 day treatment period ([2]; women, 25 mg/day oral): 133.6 days | pain free days, percent ([2]; women, 25 mg/day oral): 75% | days of pain over the first three months ([2]; women, 50 mg/day oral): less than 1 day | pain free days over the 180 day treatment period ([2]; women, 50 mg/day oral): 170 days | pain free days, percent ([2]; women, 50 mg/day oral): 96%
